Experimental data reported in patent US10538794B2, “Oligosaccharide libraries and methods of production” (Emory University, priority 2016, dated 2020).
“Also recorded” adds a separate entry of the source.

Assays:
cells = test: CORA with the isomer Ac3GlcNAc-β-Bn: secretion of Bn-O-glycans; type: cell-based
Method: CORA is an approach for both amplifying and profiling the mucin-type O-glycome in living cells. […] For example, MS analyses of β-eliminated O-glycans from WEHI-3 cells have not identified sialyl-LeX on core 2 O-glycans, a critical component on PSGL-1 recognized by P-selectin, which binds WEHI-3 cells. […] Thus the novel structures identified are natural O-glycans, mostly present on glycoproteins at low abundance.
CORA was performed on cells with mutant or wild-type C1galt1c1 (Cosmc), a chaperone known to be essential for T-synthase activity. Only cells with functional Cosmc and active T-synthase secreted Bn-O-glycans when we administered Ac3GalNAc-α-Bn (FIG. 2A-D).
Compound was added to complete media, and media was collected after incubation with cells. Media was run over a 10-kDa centrifugal filter (Amicon Ultra 4, Millipore) for ˜30 min at 2,465 g, and flow-through was collected. Bn-O-glycans were subsequently purified from flow-through with a Sep-Pak 3-cc C18 cartridge (Waters) by gravity chromatography. […]
(§1) Dried samples were permethylated. […] Spotted: 0.5 μl of matrix (10 mg/ml […] (Sigma), 50% (vol/vol) acetonitrile, 0.1% (vol/vol) TFA) and 0.5 μl of sample on an Anchorchip target plate, air dried the spots and analyzed by MALDI-TOF-MS using an Ultraflex-II TOF-TOF system (Bruker Daltonics). […]

[1] = system: breast cancer cells (MDA-MB-231); test: CORA: Bn-O-glycans in media of MDA-MB-231 cells incubated with precursor, MALDI-TOF-MS; type: cell-based; details: MDA-MB-231, 0-250 μM; for lowest concentration at which Bn-O-glycans with the predicted sialylated core 2 structure were observed: 3 d
Method: (§2) To assess whether peracetylation of Bn-α-GalNAc enhances uptake and subsequent sensitivity, breast cancer cells (MDA-MB-231) were incubated with 0-250 μM Ac3GalNAc-α-Bn or Bn-α-GalNAc for 3 d. […] Further, peracetylation of Bn-α-GalNAc was stable in complete media for at least 3 d. Thus, peracetylation improved sensitivity, and at such low concentrations potential side effects should be limited, as explored below.
To optimize conditions, MDA-MB-231 cells were cultured with 0-250 μM Ac3GalNAc-α-Bn for 2-4 d. […] Thus, CORA should be performed with low concentrations of Ac3GalNAc-α-Bn. For most subsequent studies, cells were incubated with 50 μM Ac3GalNAc-α-Bn for 3 d.
Ac3GalNAc-α-Bn or Bn-α-GalNAc was dissolved to 50 or 100 mM in DMSO and further diluted to 5-250 μM in complete media with 5% (vol/vol) FBS, except for HUVEC and human dermal fibroblast cultures, which were incubated in ATCC preformulated media. Media with compound was administered 1 d (most cells) or 2 d (HUVECs and human dermal fibroblasts) after seeding. Cells were then incubated for 2-4 d with compound before media was collected.
(§3) Compound was added to complete media, and media was collected after incubation with cells. Media was run over a 10-kDa centrifugal filter (Amicon Ultra 4, Millipore) for ˜30 min at 2,465 g, and flow-through was collected. Bn-O-glycans were subsequently purified from flow-through with a Sep-Pak 3-cc C18 cartridge (Waters) by gravity chromatography. The column was equilibrated by two washes with 2 ml of acetonitrile and four washes with 2 ml of 0.1% (vol/vol) trifluoracetic acid (TFA). Media was applied and the column was washed four times with 2 ml of 0.1% (vol/vol) TFA for each wash. Bn-O-glycans were then eluted with two 1.5-ml applications of 50% (vol/vol) acetonitrile, 0.1% (vol/vol) TFA. Eluent was divided into three fractions, concentrated by CentriVap to remove organic solvents, and lyophilized.
Dried samples were permethylated. NaOH-DMSO (200 μl) slurry was added followed by 200 μl of methyl iodide to samples. Samples were shaken for 30 min and then spun down at 5,000 g for 5 min. Supernatant was collected and chloroform extraction was performed to isolate permethylated glycans. Chloroform (500 μl) and 500 μl of water was added to supernatant. The samples were mixed and centrifuged at 5,000 g for 1 min. Two more washes were performed with 500 μl of water each before evaporating chloroform by CentriVap for 30 min. Bn-O-glycans were then resuspended in 25 or 50 μl of 50% (vol/vol) methanol. Spotted: 0.5 μl of matrix (10 mg/ml […] (Sigma), 50% (vol/vol) acetonitrile, 0.1% (vol/vol) TFA) and 0.5 μl of sample on an Anchorchip target plate, air dried the spots and analyzed by MALDI-TOF-MS using an Ultraflex-II TOF-TOF system (Bruker Daltonics). […]

Molt-4 = test: CORA: Bn-O-glycans from media of Molt-4 cells, MALDI-TOF-MS; type: cell-based; details: Molt-4, 50 μM, 3 d
Method: (§4) Adherent (HEK293) and suspension (Molt-4) cells were cultured in complete media containing 50 μM Ac3GalNAc-α-Bn or vehicle (dimethyl sulfoxide (DMSO)) for 3 d. Putative Bn-O-glycans from the media were separated from larger material with a cutoff membrane, purified by C18 chromatography, permethylated and analyzed by MALDI-TOF-MS. Here as elsewhere, the permethylated nonsulfated and/or nonphosphorylated glycans were analyzed.
as §3, with “Bn-O-glycans were then eluted with two 1.5-ml applications of 50% (vol/vol) acetonitrile, 0.1% (vol/vol) TFA. Eluent was divided into three fractions, concentrated by CentriVap to remove organic solvents, and lyophilized.” left out
as §1

HEK293 = test: CORA: Bn-O-glycans from media of HEK293 cells, MALDI-TOF-MS; type: cell-based; details: HEK293, 50 μM, 3 d
Method: as §4
as §3, with “Bn-O-glycans were then eluted with two 1.5-ml applications of 50% (vol/vol) acetonitrile, 0.1% (vol/vol) TFA. Eluent was divided into three fractions, concentrated by CentriVap to remove organic solvents, and lyophilized.” left out
as §1

[2] = Stability of peracetylation in complete media; type: physicochemical
Method: as §2

peracetylation stable in complete media [2]	SMILES	Bn-O-glycans secreted by cells incubated with the compound (cells)	lowest concentration at which Bn-O-glycans with the predicted sialylated core 2 structure were observed [1] [µM]	uptake and modification of the O-glycan precursor by glycosyltransferases (core 1- and core 2-based Bn-O-glycan compositions observed) (Molt-4)	uptake and modification of the O-glycan precursor by glycosyltransferases (core 1- and core 2-based Bn-O-glycan compositions observed) (HEK293)	effect of increasing concentration on Bn-O-glycan abundance ([1]; 2-4 d)	lowest concentration at which Bn-O-glycans in culture media were seen ([1]; 2 d) [µM]
–	CC(=O)N[C@H]1[C@H](OCc2ccccc2)O[C@H](COC(C)=O)[C@@H](OC(C)=O)[C@@H]1OC(C)=O [Ac3GlcNAc-β-Bn]	no glycans or a trisaccharide (Sia-Gal-GlcNAc-Bn) only; also recorded: no Bn-O-glycans or only the simple trisaccharide Neu5Ac-Gal-GlcNAc-Bn	–	–	–	–	–
–	CC(=O)N[C@H]1[C@@H](OCc2ccccc2)O[C@H](CO)[C@H](O)[C@@H]1O [Bn-α-GalNAc, reference compound]	–	250	–	–	–	–
at least 3 d	CC(=O)N[C@H]1[C@@H](OCc2ccccc2)O[C@H](COC(C)=O)[C@H](OC(C)=O)[C@@H]1OC(C)=O [Ac3GalNAc-α-Bn, peracetylated benzyl-α-N-acetylgalactosamine]	–	25	efficient uptake and modification	efficient uptake and modification	shifted abundance from disialylated to monosialylated core 2	5
